Results from patent US20140303164A1, “THERAPEUTIC COMPOUNDS” (Gilead Sciences, Inc., priority 2013, published 2014).

How the values were obtained:
HIV-IIIb = test: Test A: Antiviral Assay in MT4 Cells; assay type: cell-based, HIV-1; details: Human immunodeficiency virus 1, IIIB, MT4, 120 h; for inhibition at 0.2 µM: read-out: % inhibition at 0.2 μM; for inhibition at 2 µM: read-out: % inhibition at 2 μM
Experimental: Test A: Antiviral Assay in MT4 Cells
MT-4 cells were next mixed with HIV-IIIb at an m.o.i of 0.003 for 1 hour, after which time 35 μL of virus/cell mixture (2000 cells) was immediately added to each well containing 40 μL of diluted compound. The plates were then incubated at 37° C. for 5 days. […] Cell lysis was carried out by incubating at room temperature for 10 min and then chemiluminescence was read.

[1] = Test B: Cytotoxicity Assay; assay type: cell-based; details: human, uninfected MT-4 cells, same protocol as Test A
Procedure, shortened: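 Uninfected MT-4 cells (2000 per well) incubated with diluted compound at 37° C. for 5 days, following the antiviral protocol without HIV-IIIb.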

In the case of `Cn1nc(NS(C)(=O)=O)c2c(Cl)ccc(-c3ccc(-c4cnn(C(C)(C)C)c4)nc3[C@H](Cc3cc(F)cc(F)c3)NC(=O)Cn3nc(C(F)F)c4c3C(F)(F)[C@@H]3C[C@H]43)c21` [Compound 168B, N—((S)-1-(6-(1-(tert-butyl)-1H-pyrazol-4-yl)-3-(4-chloro-1-methyl-3-(methylsulfonamido)-1H-indazol-7-yl)pyridin-2-yl)-2-(3,5-difluorophenyl)ethyl)-2-((3b-S,4aR)-3-(difluoromethyl)-5,5-difluoro-3b,4,4a,5-tetrahydro-1H-cyclopropa[3,4]cyclopenta[1,2-c]pyrazol-1-yl)acetamide], the inhibition at 0.2 µM (HIV-IIIb) is reported as 90%, the inhibition at 2 µM (HIV-IIIb) is reported as 90% and the CC50 at 5 days [1] is reported as > 53.2 µM.

Work on `Cn1nc(NS(N)(=O)=O)c2c(Cl)ccc(-c3ccc(C#CC(C)(C)O)nc3[C@H](Cc3cc(F)cc(F)c3)NC(=O)Cn3nc(C(F)(F)F)c4c3C(F)(F)[C@@H]3C[C@H]43)c21` [Compound 119C, N—((S)-1-(3-(4-chloro-1-methyl-3-(sulfamoylamino)-1H-indazol-7-yl)-6-(3-hydroxy-3-methylbut-1-yn-1-yl)pyridin-2-yl)-2-(3,5-difluorophenyl)ethyl)-2-((3b-S,4aR)-5,5-difluoro-3-(trifluoromethyl)-3b,4,4a,5-tetrahydro-1H-cyclopropa[3,4]cyclopenta[1,2-c]pyrazol-1-yl)acetamide] yielded an inhibition at 0.2 µM (HIV-IIIb) of 99%, an inhibition at 2 µM (HIV-IIIb) of 99% and a CC50 at 5 days [1] of 9.24 µM.

In the case of `CC(C)C(C)(O)C#Cc1ccc(-c2cccc3c(NS(C)(=O)=O)nn(C)c23)c([C@H](Cc2cc(F)cc(F)c2)NC(=O)Cn2nc(C(F)(F)F)c3c2C(F)(F)[C@@H]2C[C@H]32)n1` (stereo partly drawn) [Compound 62, 2-((3bS,4aR)-5,5-difluoro-3-(trifluoromethyl)-3b,4,4a,5-tetrahydro-1H-cyclopropa[3,4]cyclopenta[1,2-c]pyrazol-1-yl)-N-((1S)-2-(3,5-difluorophenyl)-1-(6-(3-hydroxy-3,4-dimethylpent-1-yn-1-yl)-3-(1-methyl-3-(methylsulfonamido)-1H-indazol-7-yl)pyridin-2-yl)ethyl)acetamide], the inhibition at 0.2 µM (HIV-IIIb) is reported as 100%, the inhibition at 2 µM (HIV-IIIb) is reported as 100% and the CC50 at 5 days [1] is reported as 5.7 µM.

Compound `Cc1c(-c2ccc(C#CC(C)(C)O)nc2[C@H](Cc2cc(F)cc(F)c2)NC(=O)Cn2nc(C(F)(F)F)c3c2C(F)(F)[C@@H]2C[C@H]32)ccc2n[nH]c(=O)n12` [Compound 27G, 2-((3bS,4aR)-5,5-difluoro-3-(trifluoromethyl)-3b,4,4a,5-tetrahydro-1H-cyclopropa[3,4]cyclopenta[1,2-c]pyrazol-1-yl)-N—((S)-2-(3,5-difluorophenyl)-1-(6-(3-hydroxy-3-methylbut-1-yn-1-yl)-3-(5-methyl-3-oxo-2,3-dihydro-[1,2,4]triazolo[4,3-a]pyridin-6-yl)pyridin-2-yl)ethyl)acetamide] has an inhibition at 0.2 µM (HIV-IIIb) of 89%, an inhibition at 2 µM (HIV-IIIb) of 89% and a CC50 at 5 days [1] of 10.4 µM.

`CC(C)(O)C#Cc1ncc(-c2ccc(F)c(C(N)=O)c2)c([C@H](Cc2cc(F)cc(F)c2)NC(=O)Cn2nc(C(F)(F)F)c3c2C(F)(F)[C@@H]2C[C@H]32)n1` [Compound 23B, 5-(4-((S)-1-(2-((3bS,4aR)-5,5-difluoro-3-(trifluoromethyl)-3b,4,4a,5-tetrahydro-1H-cyclopropa[3,4]cyclopenta[1,2-c]pyrazol-1-yl)acetamido)-2-(3,5-difluorophenyl)ethyl)-2-(3-hydroxy-3-methylbut-1-yn-1-yl)pyrimidin-5-yl)-2-fluorobenzamide] showed an inhibition at 0.2 µM (HIV-IIIb) of 83%, an inhibition at 2 µM (HIV-IIIb) of 88% and a CC50 at 5 days [1] of 7.62 µM.

In the case of `Cn1cc(S(=O)(=O)Nc2nn(C)c3c(-c4ccc(C#CC(C)(C)O)nc4[C@H](Cc4cc(F)cc(F)c4)NC(=O)Cn4nc(C(F)(F)F)c5c4C(F)(F)[C@@H]4C[C@H]54)cccc23)cn1` [Compound 48, 2-((3bS,4aR)-5,5-difluoro-3-(trifluoromethyl)-3b,4,4a,5-tetrahydro-1H-cyclopropa[3,4]cyclopenta[1,2-c]pyrazol-1-yl)-N—((S)-2-(3,5-difluorophenyl)-1-(6-(3-hydroxy-3-methylbut-1-yn-1-yl)-3-(1-methyl-3-(1-methyl-1H-pyrazole-4-sulfonamido)-1H-indazol-7-yl)pyridin-2-yl)ethyl)acetamide], the inhibition at 0.2 µM (HIV-IIIb) is reported as 88%, the inhibition at 2 µM (HIV-IIIb) is reported as 88% and the CC50 at 5 days [1] is reported as 24 µM.

For `Cn1nc(NS(C)(=O)=O)c2c(Cl)ccc(-c3ccc(C#CC(C)(C)O)nc3[C@H](Cc3cccc(F)c3)NC(=O)Cn3nc(C(F)F)c4c3C(F)(F)[C@@H]3C[C@H]43)c21` [Compound 188, N—((S)-1-(3-(4-chloro-1-methyl-3-(methylsulfonamido)-1H-indazol-7-yl)-6-(3-hydroxy-3-methylbut-1-yn-1-yl)pyridin-2-yl)-2-(3-fluorophenyl)ethyl)-2-((3b-S,4aR)-3-(difluoromethyl)-5,5-difluoro-3b,4,4a,5-tetrahydro-1H-cyclopropa[3,4]cyclopenta[1,2-c]pyrazol-1-yl)acetamide], the inhibition at 0.2 µM (HIV-IIIb) was 92%, the inhibition at 2 µM (HIV-IIIb) was 92% and the CC50 at 5 days [1] was 26.3 µM.

Compound `Cn1nc(NC(=O)CNC2CC2)c2c(Cl)ccc(-c3ccc(C#CC(C)(C)O)nc3[C@H](Cc3cc(F)cc(F)c3)NC(=O)Cn3nc(C(F)F)c4c3C(F)(F)[C@@H]3C[C@H]43)c21` [Compound 102, N—((S)-1-(3-(4-chloro-3-(2-(cyclopropylamino)acetamido)-1-methyl-1H-indazol-7-yl)-6-(3-hydroxy-3-methylbut-1-yn-1-yl)pyridin-2-yl)-2-(3,5-difluorophenyl)ethyl)-2-((3b-S,4aR)-3-(difluoromethyl)-5,5-difluoro-3b,4,4a,5-tetrahydro-1H-cyclopropa[3,4]cyclopenta[1,2-c]pyrazol-1-yl)acetamide] has an inhibition at 0.2 µM (HIV-IIIb) of 100%, an inhibition at 2 µM (HIV-IIIb) of 100% and a CC50 at 5 days [1] of 5.82 µM.

`CC(C)(C)C#Cc1ccc(-c2ccc(Cl)n3c(NS(C)(=O)=O)nnc23)c([C@H](Cc2cc(F)cc(F)c2)NC(=O)Cn2nc(C(F)F)c3c2C(F)(F)[C@@H]2C[C@H]32)n1` [Compound 118, N—((S)-1-(3-(5-chloro-3-(methylsulfonamido)-[1,2,4]triazolo[4,3-a]pyridin-8-yl)-6-(3,3-dimethylbut-1-yn-1-yl)pyridin-2-yl)-2-(3,5-difluorophenyl)ethyl)-2-((3b-S,4aR)-3-(difluoromethyl)-5,5-difluoro-3b,4,4a,5-tetrahydro-1H-cyclopropa[3,4]cyclopenta[1,2-c]pyrazol-1-yl)acetamide] showed an inhibition at 0.2 µM (HIV-IIIb) of 96%, an inhibition at 2 µM (HIV-IIIb) of 96% and a CC50 at 5 days [1] of 23.9 µM.

`Cn1cnc(-c2ccc(-c3ccc(Cl)c4c(NS(C)(=O)=O)nn(C)c34)c([C@H](Cc3cc(F)cc(F)c3)NC(=O)Cn3nc(C(F)(F)F)c4c3C(F)(F)[C@@H]3C[C@H]43)n2)c1` [Compound 179, N—((S)-1-(3-(4-chloro-1-methyl-3-(methylsulfonamido)-1H-indazol-7-yl)-6-(1-methyl-1H-imidazol-4-yl)pyridin-2-yl)-2-(3,5-difluorophenyl)ethyl)-2-((3b-S,4aR)-5,5-difluoro-3-(trifluoromethyl)-3b,4,4a,5-tetrahydro-1H-cyclopropa[3,4]cyclopenta[1,2-c]pyrazol-1-yl)acetamide] gave an inhibition at 0.2 µM (HIV-IIIb) of 100%, an inhibition at 2 µM (HIV-IIIb) of 100% and a CC50 at 5 days [1] of 15.5 µM.

Compound `Cn1nc(NS(C)(=O)=O)c2c(Cl)ccc(-c3ccc(C#CC(C)(C)O)nc3[C@H](Cc3cc(F)cc(F)c3)NC(=O)Cn3nc(N)c4c3C(F)(F)[C@@H]3C[C@H]43)c21` [Compound 148B, 2-((3bS,4aR)-3-amino-5,5-difluoro-3b,4,4a,5-tetrahydro-1H-cyclopropa[3,4]cyclopenta[1,2-c]pyrazol-1-yl)-N—((S)-1-(3-(4-chloro-1-methyl-3-(methylsulfonamido)-1H-indazol-7-yl)-6-(3-hydroxy-3-methylbut-1-yn-1-yl)pyridin-2-yl)-2-(3,5-difluorophenyl)ethyl)acetamide] has an inhibition at 0.2 µM (HIV-IIIb) of 83%, an inhibition at 2 µM (HIV-IIIb) of 83% and a CC50 at 5 days [1] of 23.3 µM.

In the case of `CCNS(=O)(=O)Nc1nn(C)c2c(-c3ccc(C#CC(C)(C)O)nc3[C@H](Cc3cc(F)cc(F)c3)NC(=O)Cn3nc(C(F)(F)F)c4c3C(F)(F)[C@@H]3C[C@H]43)cccc12` [Compound 53, 2-((3bS,4aR)-5,5-difluoro-3-(trifluoromethyl)-3b,4,4a,5-tetrahydro-1H-cyclopropa[3,4]cyclopenta[1,2-c]pyrazol-1-yl)-N—((S)-2-(3,5-difluorophenyl)-1-(3-(3-((N-ethylsulfamoyl)amino)-1-methyl-1H-indazol-7-yl)-6-(3-hydroxy-3-methylbut-1-yn-1-yl)pyridin-2-yl)ethyl)acetamide], the inhibition at 0.2 µM (HIV-IIIb) is reported as 92%, the inhibition at 2 µM (HIV-IIIb) is reported as 92% and the CC50 at 5 days [1] is reported as 8.03 µM.

Compound `Cn1nc(NS(C)(=O)=O)c2c(Cl)ccc(-c3ccc(C#CC(O)(CF)CF)nc3[C@H](Cc3cc(F)cc(F)c3)NC(=O)Cn3nc(C(F)F)c4c3C(F)(F)[C@@H]3C[C@H]43)c21` [Compound 170, N—((S)-1-(3-(4-chloro-1-methyl-3-(methylsulfonamido)-1H-indazol-7-yl)-6-(4-fluoro-3-(fluoromethyl)-3-hydroxybut-1-yn-1-yl)pyridin-2-yl)-2-(3,5-difluorophenyl)ethyl)-2-((3b-S,4aR)-3-(difluoromethyl)-5,5-difluoro-3b,4,4a,5-tetrahydro-1H-cyclopropa[3,4]cyclopenta[1,2-c]pyrazol-1-yl)acetamide] has an inhibition at 0.2 µM (HIV-IIIb) of 88%, an inhibition at 2 µM (HIV-IIIb) of 88% and a CC50 at 5 days [1] of 17 µM.
